Measured values from patent US10428066B2, “Imidazo[4,5-C]pyridine and pyrrolo[2,3-C]pyridine derivatives as SSAO inhibitors” (PROXIMAGEN, LLC, priority 2013, dated 2019).
Counter-ions that a name gives are not always drawn.

The molecules below were run against purified recombinantly expressed human SSAO (Homo sapiens (Human), UniProt Q16853) (assay: SSAO enzyme inhibition assay (HRP-coupled hydrogen peroxide detection or 14C-benzaldehyde detection, benzylamine substrate)). Settings: human recombinant SSAO, RT.
Chain of purified recombinantly expressed human SSAO (Q16853 29-763): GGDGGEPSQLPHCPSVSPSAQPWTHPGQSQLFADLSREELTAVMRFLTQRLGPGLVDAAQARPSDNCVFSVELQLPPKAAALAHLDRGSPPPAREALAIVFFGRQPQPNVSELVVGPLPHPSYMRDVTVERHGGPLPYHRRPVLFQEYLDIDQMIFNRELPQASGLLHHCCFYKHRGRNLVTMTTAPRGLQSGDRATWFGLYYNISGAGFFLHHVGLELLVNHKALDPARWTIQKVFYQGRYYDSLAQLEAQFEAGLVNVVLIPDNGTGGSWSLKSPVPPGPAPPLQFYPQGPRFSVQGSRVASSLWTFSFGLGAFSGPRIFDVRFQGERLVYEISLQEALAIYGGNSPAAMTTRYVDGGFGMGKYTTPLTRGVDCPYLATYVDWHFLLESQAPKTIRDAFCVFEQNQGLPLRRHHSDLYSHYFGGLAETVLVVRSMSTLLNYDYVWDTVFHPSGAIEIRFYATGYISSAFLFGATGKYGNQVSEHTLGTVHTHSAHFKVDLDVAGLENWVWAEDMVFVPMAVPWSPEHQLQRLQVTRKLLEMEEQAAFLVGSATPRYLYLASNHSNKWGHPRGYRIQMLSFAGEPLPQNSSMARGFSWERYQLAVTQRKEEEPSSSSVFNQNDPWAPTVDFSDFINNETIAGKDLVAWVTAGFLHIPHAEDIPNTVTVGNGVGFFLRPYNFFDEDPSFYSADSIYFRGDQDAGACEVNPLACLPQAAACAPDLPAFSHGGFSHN
Type: biochemical
Procedure: All primary assays were performed at RT. with purified recombinantly expressed human SSAO. Enzyme was prepared essentially as described in Öhman et al. (Protein Expression and Purification 46 (2006) 321-331). In addition, secondary- and selectivity assays were performed using SSAO prepared from various tissues or purified rat recombinant SSAO. The enzyme activity was assayed with benzylamine as substrate by measuring either benzaldehyde production, using ^14C-labeled substrate, or by utilizing the production of hydrogen peroxide in a horseradish peroxidase (HRP) coupled reaction. Briefly, test compounds were dissolved in dimethyl sulfoxide (DMSO) to a concentration of 10 mM. Dose-response measurements were assayed by either creating 1:10 serial dilutions in DMSO to produce a 7 point curve or by making 1:3 serial dilutions in DMSO to produce 11 point curves.
In a horseradish peroxidase (HRP) coupled reaction, hydrogen peroxide oxidation of 10-acetyl-3,7-dihydroxyphenoxazine produced resorufin, which is a highly fluorescent compound (Zhout and Panchuk-Voloshina. Analytical Biochemistry 253 (1997) 169-174; Amplex® Red Hydrogen Peroxide/peroxidase Assay kit, Invitrogen A22188). Enzyme and compounds in 50 mM sodium phosphate, pH 7.4 were set to pre-incubate in flat-bottomed microtiter plates for approximately 15 min before initiating the reaction by addition of a mixture of HRP, benzylamine and Amplex reagent. Benzylamine concentration was fixed at a concentration corresponding to the Michaelis constant, determined using standard procedures. Fluorescence intensity was then measured at several time points during 1-2 h, exciting at 544 nm and reading the emission at 590 nm. For the human SSAO assay final concentrations of the reagents in the assay wells were: SSAO enzyme 1 ug/ml, benzylamine 100 uM, Amplex reagent 20 uM, HRP 0.1 U/mL and varying concentrations of test compound. The inhibition was measured as % decrease of the signal compared to a control without inhibitor (only diluted DMSO). The background signal from a sample containing no SSAO enzyme was subtracted from all data points. Data was fitted to a four parameter logistic model and IC50 values were calculated using the GraphPad Prism 4 or XLfit 4 programs.
SSAO activity was assayed using 14C-labeled benzylamine and analysed by measuring radioactive benzaldehyde. In a white 96-well optiplate (Packard), 20 uL of diluted test compound was pre-incubated at room temperature with 20 uL SSAO enzyme for approximately 15 min with continuous agitation. All dilutions were made with PBS. The reaction was initiated by adding 20 uL of the benzylamine substrate solution containing [7-14C] Benzylamine hydrochloride (CFA589, GE Healthcare). The plate was incubated for 1 h as above after which the reaction was stopped by acidification (10 uL 1M aq HCl). Then 90 uL Micro Scint-E solution (Perkin-Elmer) was added to each well and the plate was continuously mixed for 15 min. Phase separation occurred instantly and activity was read in a Topcount scintillation counter (Perkin-Elmer). In the final reaction well, the human recombinant SSAO concentration was 10 ug/ml. In order to optimize sensitivity, the substrate concentration was decreased as compared to the HRP coupled assay in order to get a higher fraction of radioactive product. In the human SSAO assay, benzylamine concentration was 40 uM (0.2 uCi/mL). Data was analysed as above.

SMILES	IC50
Cc1nc(N2CCOCC2)ccc1-c1nc2ccncc2n1-c1ccc(F)cc1 [Example 108, 4-{5-[3-(4-Fluorophenyl)-3H-imidazo[4,5-c]pyridin-2-yl]-6-methylpyridin-2-yl}morpholine]	0.2 to 1.2 µM
NC(=O)N1CCCN(c2ccc(-c3nc4ccncc4n3-c3ccc(F)cc3)cn2)CC1 [Example 94, 4-{5-[3-(4-Fluorophenyl)-3H-imidazo[4,5-c]pyridin-2-yl]pyridin-2-yl}-1,4-diazepane-1-carboxamide]	0.2 to 1.2 µM
c1cc2nc(-c3cnc(N4CCOCC4)nc3)n(-c3ccc(C4CC4)cc3)c2cn1 [Example 96, 4-{5-[3-(4-Cyclopropylphenyl)-3H-imidazo[4,5-c]pyridin-2-yl]pyrimidin-2-yl}morpholine]	0.05 to 0.2 µM
Cc1cc(N2CCOCC2)nc(C)c1-c1nc2ccncc2n1-c1ccc(F)cc1 [Example 29, 4-{5-[3-(4-Fluorophenyl)-3H-imidazo[4,5-c]pyridin-2-yl]-4,6-dimethylpyridin-2-yl}morpholine]	0.2 to 1.2 µM
Cc1ccc(-n2c(-c3cnc(N4CCOCC4)nc3)nc3ccncc32)cn1 [Example 58, 4-{5-[3-(6-Methylpyridin-3-yl)-3H-imidazo[4,5-c]pyridin-2-yl]pyrimidin-2-yl}morpholine]	0.2 to 1.2 µM
COCCN(C)c1ncc(-c2nc3ccncc3n2-c2ccc(C)cc2)cn1 [Example 117, N-(2-Methoxyethyl)-N-methyl-5-[3-(4-methylphenyl)-3H-imidazo[4,5-c]pyridin-2-yl]pyrimidin-2-amine]	0.2 to 1.2 µM
Cc1ccc(-n2c(-c3cnc(NC4CCOCC4)nc3)nc3ccncc32)cc1 [Example 119, 5-[3-(4-Methylphenyl)-3H-imidazo[4,5-c]pyridin-2-yl]-N-(oxan-4-yl)pyrimidin-2-amine; bis(trifluoroacetic acid)]	0.05 to 0.2 µM
COc1nc(N2CCOCC2)ccc1-c1nc2ccncc2n1-c1ccc(F)cc1 [Example 28, 4-{5-[3-(4-Fluorophenyl)-3H-imidazo[4,5-c]pyridin-2-yl]-6-methoxypyridin-2-yl}morpholine]	0.05 to 0.2 µM
Fc1ccc(-n2c(-c3cnc(N4CCOCC4)nc3)nc3ccncc32)nc1 [Example 76, 4-{5-[3-(5-Fluoropyridin-2-yl)-3H-imidazo[4,5-c]pyridin-2-yl]pyrimidin-2-yl}morpholine]	0.05 to 0.2 µM
c1ccc(-n2c(-c3cnc(N4CCOCC4)nc3)nc3ccncc32)cc1 [Example 95, 4-(5-{3-Phenyl-3H-imidazo[4,5-c]pyridin-2-yl}pyrimidin-2-yl) morpholine]	0.05 to 0.2 µM
Cc1ccc(-n2c(-c3ccc(N4CCOCC4)nc3)nc3ccncc32)cc1 [Example 63, 4-{5-[3-(4-Methylphenyl)-3H-imidazo[4,5-c]pyridin-2-yl]pyridin-2-yl}morpholine]	0.2 to 1.2 µM
Cc1ccc(-n2c(-c3cnc(N4CCOCC4)cc3C)nc3ccncc32)cc1 [Example 97, 4-{4-Methyl-5-[3-(4-methylphenyl)-3H-imidazo[4,5-c]pyridin-2-yl]pyridin-2-yl}morpholine]	0.2 to 1.2 µM
Cc1nc(N2CCOCC2)ncc1-c1nc2ccncc2n1-c1ccc(F)cc1 [Example 26, 4-{5-[3-(4-Fluorophenyl)-3H-imidazo[4,5-c]pyridin-2-yl]-4-methylpyrimidin-2-yl}morpholine]	0.05 to 0.2 µM
Cc1cc(NC2CCOCC2)ncc1-c1nc2ccncc2n1-c1ccc(F)cc1 [Example 100, 5-[3-(4-Fluorophenyl)-3H-imidazo[4,5-c]pyridin-2-yl]-4-methyl-N-(oxan-4-yl)pyridin-2-amine]	0.2 to 1.2 µM

The remaining lines, values ahead:

IC50	SMILES
0.05 to 0.2 µM	Clc1ccc(-n2c(-c3cnc(N4CCNCC4)s3)nc3ccncc32)cc1 [Example 19, 1-{5-[3-(4-Chlorophenyl)-3H-imidazo[4,5-c]pyridin-2-yl]-1,3-thiazol-2-yl}piperazine]
0.2 to 1.2 µM	Cc1ccc(-n2c(-c3cnc(N4CCOCC4)nc3)nc3ccncc32)c(F)c1 [Example 53, 4-{5-[3-(2-Fluoro-4-methylphenyl)-3H-imidazo[4,5-c]pyridin-2-yl]pyrimidin-2-yl}morpholine]
0.2 to 1.2 µM	Fc1cc(-n2c(-c3cnc(N4CCOCC4)nc3)nc3ccncc32)ccc1Cl [Example 74, 4-{5-[3-(4-Chloro-3-fluorophenyl)-3H-imidazo[4,5-c]pyridin-2-yl]pyrimidin-2-yl}morpholine]
0.2 to 1.2 µM	O=c1ccc(-c2nc3ccncc3n2-c2ccc(Cl)cc2F)c[nH]1 [Example 35, 5-[3-(4-Chloro-2-fluorophenyl)-3H-imidazo[4,5-c]pyridin-2-yl]-1,2-dihydropyridin-2-one]
0.05 to 0.2 µM	Cc1cc(F)ccc1-n1c(-c2ccc(N3CCOCC3)nc2)nc2ccncc21 [Example 62, 4-{5-[3-(4-Fluoro-2-methylphenyl)-3H-imidazo[4,5-c]pyridin-2-yl]pyridin-2-yl}morpholine]
0.2 to 1.2 µM	Clc1ccc(-n2c(-c3ccncc3)nc3ccncc32)cc1 [Example 2, 4-[3-(4-Chlorophenyl)-3H-imidazo[4,5-c]pyridin-2-yl]pyridine]
0.2 to 1.2 µM	Cn1ccc(-c2nc3ccncc3n2-c2ccc(F)cc2)cc1=O [Example 114, 4-[3-(4-Fluorophenyl)-3H-imidazo[4,5-c]pyridin-2-yl]-1-methyl-1,2-dihydropyridin-2-one]
0.05 to 0.2 µM	CCOCCNc1ncc(-c2nc3ccncc3n2-c2ccc(F)cc2)cn1 [Example 42, N-(2-Ethoxyethyl)-5-[3-(4-fluorophenyl)-3H-imidazo[4,5-c]pyridin-2-yl]pyrimidin-2-amine]
0.2 to 1.2 µM	Clc1ccc(-n2c(-c3cnc[nH]3)nc3ccncc32)cc1 [Example 44, 5-[3-(4-Chlorophenyl)-3H-imidazo[4,5-c]pyridin-2-yl]-1H-imidazole]
0.05 to 0.2 µM	CCn1ccc(-c2cc3ccncc3n2-c2ccc(Cl)cc2)cc1=O [Example 144, 4-[1-(4-Chlorophenyl)-1H-pyrrolo[2,3-c]pyridin-2-yl]-1-ethyl-1,2-dihydropyridin-2-one]
0.05 to 0.2 µM	Clc1ccc(-n2c(-c3cnc(N4CCNCC4)o3)nc3ccncc32)cc1 [Example 18, 1-{5-[3-(4-Chlorophenyl)-3H-imidazo[4,5-c]pyridin-2-yl]-1,3-oxazol-2-yl}piperazine dihydrochloride]
0.2 to 1.2 µM	Clc1ccc(-n2c(-c3cccnc3)nc3ccncc32)cc1 [Example 1, 3-[3-(4-Chlorophenyl)-3H-imidazo[4,5-c]pyridin-2-yl]pyridine]
0.2 to 1.2 µM	Nc1ncc(-c2nc3ccncc3n2-c2ccc(Cl)cc2)cn1 [Example 31, 5-[3-(4-Chlorophenyl)-3H-imidazo[4,5-c]pyridin-2-yl]pyrimidin-2-amine]
0.05 to 0.2 µM	Clc1ccc(-n2c(-c3cnc(NC4CCOCC4)cn3)nc3ccncc32)cc1 [Example 7, 5-[3-(4-Chlorophenyl)-3H-imidazo[4,5-c]pyridin-2-yl]-N-(oxan-4-yl)pyrazin-2-amine]
0.2 to 1.2 µM	O=C(c1ccc(-c2nc3ccncc3n2-c2ccc(Cl)cc2)cn1)N1CCOCC1 [Example 6, 4-({5-[3-(4-Chlorophenyl)-3H-imidazo[4,5-c]pyridin-2-yl]pyridin-2-yl}carbonyl)morpholine]
0.05 to 0.2 µM	O=c1cc(-c2nc3ccncc3n2-c2ccc(Cl)cc2F)ccn1C1CC1 [Example 116, 4-[3-(4-Chloro-2-fluorophenyl)-3H-imidazo[4,5-c]pyridin-2-yl]-1-cyclopropyl-1,2-dihydropyridin-2-one]
0.2 to 1.2 µM	CN(C)c1cc(-c2nc3ccncc3n2-c2ccc(F)cc2)ccn1 [Example 109, 4-[3-(4-Fluorophenyl)-3H-imidazo[4,5-c]pyridin-2-yl]-N,N-dimethylpyridin-2-amine]
0.05 to 0.2 µM	Cc1cc(NCC2CC2)ncc1-c1nc2ccncc2n1-c1ccc(F)cc1 [Example 101, N-(Cyclopropylmethyl)-5-[3-(4-fluorophenyl)-3H-imidazo[4,5-c]pyridin-2-yl]-4-methylpyridin-2-amine]
0.05 to 0.2 µM	O=C1CN(c2ncc(-c3nc4ccncc4n3-c3ccc(F)cc3)cn2)CCN1 [Example 12, 4-{5-[3-(4-Fluorophenyl)-3H-imidazo[4,5-c]pyridin-2-yl]pyrimidin-2-yl}piperazin-2-one]
